The structures appear in SMILES notation. Where “and” joins values, the source holds several entries; their conditions need not be identical. Equal entries are not always repeated.

The results in this text go back to PMC12016938, “A small molecule PKCε inhibitor reduces hyperalgesia induced by paclitaxel or opioid withdrawal” (JCI Insight, 2025).

The subject of assay [1] is conditioned place aversion. The experiment in a line: Conditioned place aversion precipitated by naloxone. The conditions noted are these: for Preference score: individual mice, time in environment paired with naloxone (5 mg/kg, i.p.) minus time in it at baseline, negative = aversion. Format: in vivo, DBA/2J mice. As to the method: In addition to hyperalgesia, withdrawal from repeated administration of morphine produces somatic signs of withdrawal and conditioned place aversion. We tested the effects of CP612 on these responses. […] Two hours after this last injection of saline or morphine, mice were administered naloxone (5 mg/kg, i.p.) to precipitate somatic signs of withdrawal and conditioned place aversion. Withdrawal from repeated administration of morphine evoked somatic signs of withdrawal (Figure 11, A–C, and Supplemental Figure 2); only the highest dose of CP612 (40 mg/kg) reduced them (Figure 11, A–C) [H PKC inhibition (3, n = 62) = 33.34, P < 0.001]. Withdrawal from repeated administration of morphine also evoked conditioned place aversion (Figure 11, A and C) [F PKC inhibition (5,78) = 7.16, P < 0.001; mice receiving repeated administration of saline with vehicle versus mice receiving repeated administration of morphine with vehicle, P < 0.001], and this was not modified by CP612 at any dose tested (all P > 0.079).
The place conditioning apparatus was an acrylic box enclosed in light- and sound-attenuating, ventilated chambers (MED Associates). The box had 2 compartments separated by a removable sliding door. […] The dimensions of each compartment were 13.5 × 27 × 17 cm. Infrared light beams and photodetectors located along the walls of the box measured general activity and location of the mouse in each compartment, which were recorded using Activity Monitor version 7.0.5.10 software (Med Associates). On day 0 (pretest), drug-naive mice were acclimated for 15 minutes to the place conditioning apparatus without the sliding door, so they had free access to both compartments of the apparatus. This established a baseline side preference, based on the amount of time spent in each compartment. […] On day 6 (conditioning day), mice were pretreated with vehicle (10 mL/kg, i.p.) or CP612 (5, 10, 20, or 40 mg/kg, i.p.), followed by a single injection of morphine (100 mg/kg, i.p.) 4 hours later. Two hours after this last injection of morphine, mice were administered naloxone (5 mg/kg, i.p.), to precipitate withdrawal, and were immediately confined to 1 side of the conditioning apparatus for 20 minutes. During this conditioning period, mice were filmed (Raspberry Pi Camera) to assess somatic signs of withdrawal ([39]). Given the limited number of cameras and the poor quality of some videos, we were only able to film a subset of mice. The following behaviors were given a score of 1 per occurrence and episode: body shakes (paw tremors and wet dog shakes), teeth chatter, rearing, hopping, wall climbing, and backpedaling. These scores were summed to obtain a global withdrawal score and were obtained from an independent observer who was blind to the experimental conditions. A subset of videos was scored by 2 observers, to ensure internal validity (Cronbach’s α = 0.980, Correlation Observer r = 0.97, slope 1.15, P < 0.005). On day 7 (test day), mice were placed in the conditioning apparatus with free access to both compartments, for 15 minutes. We recorded the time spent in each compartment.

The target in assay [2] is T1, ROCK1 (Homo sapiens, UniProt Q13464). As to the kind of experiment: scanMax kinome panel, ROCK1. More on the design: purchased Eurofins-DiscoverX. Format: binding. The note with it: 200 nM CP612. The protocol:
CP612 was screened for kinome specificity at 200 nM against 468 kinases using the scanMax assay panel from Eurofins-DiscoverX. CP612 inhibited 10 other WT kinases besides PKCε, all to < 10% of control: CLK1 (CDC Like Kinase 1), CLK4, PKN1 (Protein kinase N1), PKN2, PKCδ, PKCη, PKCθ, PRKG2 (Protein Kinase CGMP-Dependent 2), ROCK1, and ROCK2.
Target sequence in this assay (Q13464 whole entry): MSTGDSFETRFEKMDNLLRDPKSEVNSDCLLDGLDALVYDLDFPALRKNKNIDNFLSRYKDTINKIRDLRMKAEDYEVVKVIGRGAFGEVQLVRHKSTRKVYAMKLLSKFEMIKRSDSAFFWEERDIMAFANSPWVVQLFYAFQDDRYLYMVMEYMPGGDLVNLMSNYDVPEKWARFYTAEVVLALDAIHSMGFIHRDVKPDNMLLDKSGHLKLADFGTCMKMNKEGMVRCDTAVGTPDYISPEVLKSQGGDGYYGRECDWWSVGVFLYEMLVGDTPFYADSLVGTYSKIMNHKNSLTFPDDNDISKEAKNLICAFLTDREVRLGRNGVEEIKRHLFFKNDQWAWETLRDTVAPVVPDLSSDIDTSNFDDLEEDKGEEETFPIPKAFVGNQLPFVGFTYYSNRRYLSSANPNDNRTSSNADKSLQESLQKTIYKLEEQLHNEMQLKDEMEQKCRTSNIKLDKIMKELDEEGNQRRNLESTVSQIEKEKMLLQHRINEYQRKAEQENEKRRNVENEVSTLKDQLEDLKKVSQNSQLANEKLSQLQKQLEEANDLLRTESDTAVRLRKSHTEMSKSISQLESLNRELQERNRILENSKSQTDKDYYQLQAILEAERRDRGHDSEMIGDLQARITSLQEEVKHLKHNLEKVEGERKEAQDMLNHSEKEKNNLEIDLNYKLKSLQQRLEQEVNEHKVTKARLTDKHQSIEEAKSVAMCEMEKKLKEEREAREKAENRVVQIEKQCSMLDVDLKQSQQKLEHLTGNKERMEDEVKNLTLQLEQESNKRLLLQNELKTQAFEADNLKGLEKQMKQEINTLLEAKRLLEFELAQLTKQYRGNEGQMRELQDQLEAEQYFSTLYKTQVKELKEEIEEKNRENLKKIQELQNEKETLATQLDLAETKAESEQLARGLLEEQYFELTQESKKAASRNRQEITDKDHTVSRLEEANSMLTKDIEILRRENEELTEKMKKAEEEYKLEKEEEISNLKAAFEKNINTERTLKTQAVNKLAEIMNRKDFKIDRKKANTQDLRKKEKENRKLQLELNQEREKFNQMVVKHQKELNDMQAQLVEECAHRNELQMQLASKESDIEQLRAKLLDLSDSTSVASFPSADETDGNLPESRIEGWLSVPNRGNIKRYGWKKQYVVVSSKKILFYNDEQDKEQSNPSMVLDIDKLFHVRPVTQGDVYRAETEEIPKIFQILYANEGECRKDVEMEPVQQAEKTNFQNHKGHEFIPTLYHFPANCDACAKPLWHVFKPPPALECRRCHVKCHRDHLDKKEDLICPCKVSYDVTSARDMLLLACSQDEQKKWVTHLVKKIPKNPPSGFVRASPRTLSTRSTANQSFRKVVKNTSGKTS

Assay [3] addresses T1, ROCK1. As to the kind of experiment: Lance-FRET kinase assay, ROCK1. Format: biochemical. Also on record: purchased Carna Biosciences. The conditions noted are these: mean of all runs (count 42 CP612; 38 CIDD-0072424); 2.5 μM ATP; read-out: IC50 (nM) [Enzyme: ROCK1], mean. As to the method:
Kinase assays. CP612 was assayed against His-AVI–tagged human PKCε (1 nM) produced in Sf9 cells, and ROCK1 (Carna Biosciences; 5 nM) using the Lance-FRET kinase assay system (PerkinElmer Revvity). Other human recombinant PKCs (SignalChem Biotech) were assayed in triplicate at the following concentrations: PKCβII 1.6 nM, PKCγ 500 pM, PKCδ 5 nM, PKCθ 500 pM, and PKCζ 500 pM. PKCs were incubated in a 15 μL reaction volume with kinase buffer (20 mM Tris-HCL [pH 7.4], 10 mM MgCl2, 0.25 mM EGTA, 0.1 mg/mL BSA, and 0.15% Triton X-100), 50 nM ULight-labeled CREBtide […] (PerkinElmer, TRF0107, Revvity), and test compound. […] After incubation at 27°C for another 60 minutes, phosphorylation was detected using a FlexStation 3 Microplate Reader (Molecular Devices) in LANCE TR-FRET mode (excitation = 340 nm, emission = 665 nm) and expressed as relative fluorescence units (RFU). The percentage of inhibition was calculated as: (signal without test compound − signal with test compound)/(signal without test compound − signal without ATP) × 100. […]
Kinase assays used 11-point concentration-response curves and results were analyzed by nonlinear regression using Prism 9 (GraphPad Software) to determine IC50 values. […] Scores for pain threshold, conditioned place preference, and self-administration were analyzed by ANOVA using the following factors. […]
Target sequence in this assay (Q13464 1-477 limits assumed): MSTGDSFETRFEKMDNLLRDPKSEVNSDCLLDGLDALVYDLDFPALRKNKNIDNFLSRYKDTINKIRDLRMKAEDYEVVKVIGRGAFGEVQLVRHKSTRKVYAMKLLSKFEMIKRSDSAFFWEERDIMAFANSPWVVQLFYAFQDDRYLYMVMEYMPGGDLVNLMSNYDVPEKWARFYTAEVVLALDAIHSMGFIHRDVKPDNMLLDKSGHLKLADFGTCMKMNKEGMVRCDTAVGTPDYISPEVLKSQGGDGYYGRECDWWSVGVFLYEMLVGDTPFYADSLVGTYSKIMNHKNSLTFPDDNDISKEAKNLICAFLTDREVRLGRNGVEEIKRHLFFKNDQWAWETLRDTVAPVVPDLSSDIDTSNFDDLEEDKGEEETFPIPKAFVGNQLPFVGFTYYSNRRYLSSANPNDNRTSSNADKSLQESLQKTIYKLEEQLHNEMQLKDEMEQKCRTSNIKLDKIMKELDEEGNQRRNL

`N[C@H](CNC(=O)C1(c2ccc(Cl)cc2)CCCC1)c1ccc(C(=O)Nc2ccncc2)cc1` [CP612]: the Preference score was -0.0843 and -0.28 and -0.22 and -0.17 and -0.023 and -0.35 in assay [1] (Morphine + CP612 5 mg/kg); -0.07 and -0.22 and -0.42 and -0.21 and -0.19 and -0.38 and -0.15 and -0.12 and 0.14 and -0.13 and -0.10 and 0.0341 and -0.23 in assay [1] (Morphine + CP612 10 mg/kg); -0.0656 and -0.40 and -0.13 and -0.25 and -0.10 and -0.30 and -0.31 in assay [1] (Morphine + CP612 20 mg/kg); -0.17 and -0.18 and -0.35 and -0.39 and 0.000111 and -0.22 and 0.013 and -0.28 and -0.25 and -0.09 and -0.27 in assay [1] (Morphine + CP612 40 mg/kg). In addition, the “Effect on conditioned place aversion” value in assay [1] (male DBA/2J mice, CP612 5, 10, 20, 40 mg/kg i.p.) was “not modified”. Further, the “scanMax % of control, ROCK1” value at ROCK1 [2] was < 10 % of control. In addition, on ROCK1 [3], the IC50 worked out at 65.9 ± 10.8 nM.
